Legend:
[1] = tested on: L-02 cells (normal human liver cells); assay: in vitro; settings: L-02, 48 hrs
Protocol: (§1) For testing the anti-proliferation activity of the compounds in human cell lines and calculation of IC50, cancer cells including HepG2, HeLa and Hep3B (4×10^5 cells/well) and normal L-02 cells (5×10^5 cells/well) were respectively seeded in 96-well plates in 100 μl of culture medium and incubated for about 12 hrs at 37° C. The cells were treated with two-fold serial dilutions of the drugs for 48 hrs. Medium was removed and 100 μl of culture medium containing 1 μM WST-1 (water soluble tetrazolium-1) were added to each well. The cells were incubated for 2 hrs, and absorbance at 405 nm (reference at 630 nm) was then measured. To construct the standard curve of the relationship between cell number and absorbance at OD405, serial dilutions of cells with known cell numbers were seeded and incubated for six hrs before being measured by the WST-1 assay. The cell viability was expressed as the ratio of the number of live cells treated with a candidate compound versus that of the DMSO-treated cells.
A pair of human cell lines, L-02 (normal liver cells) and HepG2 (a liver cancer cell line) was treated with 17beta-Deacetyltanghinin for 48 hrs. […] In FIG. 2B-H, quantification of viable cell numbers was carried out using WST-1 (Water-soluble tetrazolium-1) assay.
To further test 17beta-Deacetyltanghinin and to determine the IC50 values, besides L-02 and HepG2, Hep3B (another liver cancer cell line which is p53-negative), HeLa (cervical cancer cell line), HK1 and C666-1 (nasopharyngeal carcinoma) cells and a hTert-immortalized normal nasopharyngeal cell line (NP460) were treated by 17beta-Deacetyltanghinin for 48 hrs, and the relative cell vabilities were determined by WST-1 assay (FIG. 2B, C).

[2] = tested on: normal cells (L-02, NP460); assay: WST-1 anti-proliferation assay, normal cells (IC50); assay type: cell-based; settings: Homo sapiens, 48 hrs treatment
Protocol: as §1, with “cells. […]” for “cells.”

hMcm2 and hMcm6 [3] = biological target: T1, hMcm2 and hMcm6 (Homo sapiens, UniProt P49736+Q14566); assay: Immunostaining / GFP fluorescence microscopy of MCM nuclear localization in HeLa cells; assay type: cell-based; settings: 24 hrs
T1 construct: the endogenous hMcm2 and hMcm6 were detected by specific antibodies against these proteins; endogenous in cells; host or cells: HeLa
Protocol: (§2) To study the effect of the anticancer compounds on the interaction between hMcm2 and hMcm6 in the cells, immunostaining was performed to detect the sub-cellular localization of the proteins. HeLa cells grown on cover slips (coated with poly-D-lysine) with or without drug treatment were fixed with 4% PFA in PBS at room temperature for 20 min. After permeabilization with 0.1% Triton X-100 and 1% BSA in PBS for 20 min, cells were blocked with 1% BSA and then incubated with rabbit anti-hMcm6 (Santa Cruz; 1:500) and mouse anti-hMcm2 (Becton Dickinson; 1:500) primary antibodies at room temperature for 1 hr. Cells were then incubated with Alexa Fluor 488-conjugated donkey […] antibody and Alexa Fluor 594-conjugated donkey anti-mouse antibody (Invitrogen; 1:500) at room temperature for 1 hr. Three washes with PBS were performed after each round of antibody incubation. Cells were then incubated with Hochest 33852 (Sigma Chemical Company; 1 μg/ml) at room temperature for 15 min for nuclear staining and washed with PBS three times again. At last, cells were mounted and observed under the fluorescence microscope (Nikon TE2000E).
(§3) Because pair-wise interactions among the MCM subunits are required for the MCM heterohexameric ring structure, which is essential for their import into the nucleus, disruption of the interaction between hMcm2 and hMcm6 should destroy the hexamer and result in failure of nuclear localization of MCM proteins. To test this, we employed both indirect fluorescence microscopy (immunostaining) using antibodies against the endogenous MCM proteins and direct fluorescence microscopy after transfection with plasmids to express hMcm2-GFP and hMcm6-GFP in the cells.
(§4) In immunostaining, HeLa cells were treated by 17beta-Deacetyltanghinin for 24 hrs, and the endogenous hMcm2 and hMcm6 were detected by specific antibodies against these proteins. […] In direct fluorescence microscopy, HeLa cells expressing hMcm2-GFP and hMcm6-GFP were treated with 17beta-Deacetyltanghinin for 36 hrs starting at 4 hrs post-transfection with the plasmids expressing hMcm2-GFP and hMcm6-GFP.

hMcm2 and hMcm6 [4] = assay: as above; assay type: cell-based, human; settings: 36 hrs treatment starting 4 hrs post-transfection
Protocol: as §2, §3, §4

[5] = tested on: L-02 (normal liver) cells and HepG2 (liver cancer) cells; assay: Growth resumption after drug removal, WST-1 assay; assay type: cell-based, human; settings: one day treatment, then three days in fresh medium
Protocol: Data in FIGS. 2 and 8A indicate that the anti-proliferation compounds of this invention can specifically kill cancer cells with little cytotoxicity towards normal cells. To test if normal and/or cancer cells could resume cell growth after removal of 17beta-Deacetyltanghinin, L-02 (normal liver) cells and HepG2 (liver cancer) cells were incubated with 17beta-Deacetyltanghinin or DMSO for one day, 17beta-Deacetyltanghinin or DMSO was then removed, and the cells were further incubated with fresh growth medium for three days. Viable cell numbers were monitored daily by WST-1 assay. In FIG. 9, L+DAT refers to L-02 cells treated with 17beta-Deacetyltanghinin; L+D represents L-02 cells treated with DMSO; H+DAT refers to HepG2 cells treated with 17beta-Deacetyltanghinin; and H+D represents HepG2 cells treated with DMSO before being released into fresh medium.

[6] = tested on: HeLa cells xenograft tumors; assay: In vivo anticancer activity, nude mice xenograft model; settings: for suppression of tumor growth: days 1-3 and 6-10, HeLa xenograft
Protocol: In vivo anticancer activity tests were carried out in the nude mice xenograft model by inoculating nude mice with HeLa cells in both the left and right flanks. After random grouping, nude mice were treated intraperitoneally with 17beta-Deacetyltanghinin or the solvent (30% of propylene glycol in PBS). In the first test, 3 days after tumor inoculation when small tumors started to form, two groups of nude mice were treated on days 1-3 and 6-10 with 3.5 and 7.0 mg-drug/kg-body weight of 17beta-Deacetyltanghinin respectively, and another group of control mice were treated with the same volume of the solvent (FIG. 10A). In FIG. 10A, the tumor volume data represented by the small-size data point symbol linked with thin lines were obtained on the days when both measurement of tumor size and drug injections were performed, and the tumor volume data represented by the large-size data point symbol linked with thick lines were obtained on the days without drug injection. Each tumor size was average of ten tumors in five mice in each group.
A further set of animal experiments was then conducted with a longer period of time, in which fifteen drug injections at 5.0 mg/kg were performed one week after tumor inoculation when the tumor size reached 0.05-0.1 cm^3. In FIG. 10B, drug injections and tumor size measurements were performed on the days represented by the data points, and the photographs in FIG. 10C were taken on day 20.

T1 sequence (P49736 2-904): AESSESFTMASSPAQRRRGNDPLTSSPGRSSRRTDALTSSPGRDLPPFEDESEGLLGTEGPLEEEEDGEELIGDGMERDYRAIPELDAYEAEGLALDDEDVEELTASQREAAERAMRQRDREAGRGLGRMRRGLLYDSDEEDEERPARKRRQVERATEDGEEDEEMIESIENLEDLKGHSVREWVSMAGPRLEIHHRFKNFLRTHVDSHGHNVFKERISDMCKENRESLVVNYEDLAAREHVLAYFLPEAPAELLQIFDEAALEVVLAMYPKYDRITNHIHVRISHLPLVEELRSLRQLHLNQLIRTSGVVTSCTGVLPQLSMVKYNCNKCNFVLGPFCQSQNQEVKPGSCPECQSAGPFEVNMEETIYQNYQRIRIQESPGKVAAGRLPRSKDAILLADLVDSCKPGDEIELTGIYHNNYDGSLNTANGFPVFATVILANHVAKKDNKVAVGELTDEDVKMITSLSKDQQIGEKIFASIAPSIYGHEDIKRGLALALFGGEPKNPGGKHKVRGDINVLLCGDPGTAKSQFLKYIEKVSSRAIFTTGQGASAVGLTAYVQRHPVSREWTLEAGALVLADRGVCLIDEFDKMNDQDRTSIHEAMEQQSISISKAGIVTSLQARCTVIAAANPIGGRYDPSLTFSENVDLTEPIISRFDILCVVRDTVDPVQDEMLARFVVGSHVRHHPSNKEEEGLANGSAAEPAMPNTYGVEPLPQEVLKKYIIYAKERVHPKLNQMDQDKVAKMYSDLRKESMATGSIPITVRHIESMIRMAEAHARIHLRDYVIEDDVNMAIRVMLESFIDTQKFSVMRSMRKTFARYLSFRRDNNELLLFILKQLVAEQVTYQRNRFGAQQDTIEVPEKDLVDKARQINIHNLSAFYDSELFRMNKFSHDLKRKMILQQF
T1 sequence (Q14566 whole entry): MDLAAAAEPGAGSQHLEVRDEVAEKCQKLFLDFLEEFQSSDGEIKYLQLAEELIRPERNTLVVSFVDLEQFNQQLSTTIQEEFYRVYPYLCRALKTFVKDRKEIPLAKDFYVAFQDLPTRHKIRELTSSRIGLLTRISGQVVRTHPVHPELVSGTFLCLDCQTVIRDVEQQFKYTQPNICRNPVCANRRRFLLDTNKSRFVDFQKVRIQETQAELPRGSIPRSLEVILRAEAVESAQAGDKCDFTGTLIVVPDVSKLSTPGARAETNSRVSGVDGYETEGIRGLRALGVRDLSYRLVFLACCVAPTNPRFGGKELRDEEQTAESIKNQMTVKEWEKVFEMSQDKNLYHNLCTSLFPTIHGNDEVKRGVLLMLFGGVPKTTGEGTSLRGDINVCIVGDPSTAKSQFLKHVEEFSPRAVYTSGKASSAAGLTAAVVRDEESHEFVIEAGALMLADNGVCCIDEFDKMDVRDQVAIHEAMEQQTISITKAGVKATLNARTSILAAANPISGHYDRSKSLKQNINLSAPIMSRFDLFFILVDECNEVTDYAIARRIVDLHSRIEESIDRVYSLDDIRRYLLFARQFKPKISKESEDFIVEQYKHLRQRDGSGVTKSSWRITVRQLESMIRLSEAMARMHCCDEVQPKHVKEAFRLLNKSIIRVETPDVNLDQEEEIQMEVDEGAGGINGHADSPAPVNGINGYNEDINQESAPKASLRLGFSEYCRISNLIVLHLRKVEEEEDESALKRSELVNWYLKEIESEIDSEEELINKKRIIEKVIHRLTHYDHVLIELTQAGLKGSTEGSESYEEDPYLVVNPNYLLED

In the case of `COC1C(O)[C@H](O[C@H]2CC[C@]3(C)C4CC[C@]5(C)[C@@H](C6=CC(=O)OC6)CC[C@]5(O)[C@@]45O[C@H]5C[C@@H]3C2)OC(C)[C@@H]1O` (stereo partly drawn) [17beta-Deacetyltanghinin, 3β-O-(3-O-methyl-6-deoxy-α-L-glucopyranosyl)-7β,8β-epoxy-14β-hydroxy-card-20(22)-enolide], the “activity towards normal cells, direct microscopy of cell density and morphology” value [1] is reported as “much lower activity”, the IC50 [2] is reported as greater than 4 mg/L and the “nuclear localization of endogenous hMcm2 and hMcm6 (immunostaining)” value (hMcm2 and hMcm6 [3]) is reported as “impaired”. The “localization of expressed hMcm2-GFP and hMcm6-GFP (direct fluorescence)” value (hMcm2 and hMcm6 [4]) was “some of the expressed hMcm2-GFP and hMcm6-GFP located in the cytoplasm”, the “growth resumption after removal of compound” value [5] was “normal cells, but not cancer cells, resumed growth” and the “suppression of tumor growth” value ([6]; 3.5 mg/kg intraperitoneally) was 70%. For the same compound, the “suppression of tumor growth” value ([6]; 7.0 mg/kg intraperitoneally) was 90% and the “tumors smaller than in solvent-treated control mice” value ([6]; fifteen injections at 5.0 mg/kg, started one week after inoculation) was “over 80%”.

Reference: patent US11648258B2, “Method and compounds for inhibiting the MCM complex and their application in cancer treatment” (priority 2012, dated 2023)
